One data set is described as follows: Water solubility. The format is physicochemical. As to the method:
Water solubility of adenine derivatives of the present invention and representative known cytokinin substances was measured and the results are shown in Table 7. […]

In data set [1] the test system is Rice seeds (var.: Nankin No. 11) leaf section. Briefly: Assay of cytokinin activity by measurement of chlorophyll content (senescence retardation of rice leaf sections). The format is cell-based, Rice (var.: Nankin No. 11). To be noted: dark, 30°C, 3 days. As to the method:
Rice seeds (var.: Nankin No. 11) were sown in soil mixed with fertilizer in a seed box and raised for about one month in a greenhouse (25°C in the daytime and 15°C in the night).
A leaf section 1 cm long was cut off from the center of the fourth leaf of the seedlings at the sixth leaf stage. Five leaf sections as one group which had been cut off were floated on the surface of an aqueous solution (2 ml) of the candidate compound or benzyl adenine at a given concentration contained in a glass tubular bottle of 32 mm in inner diameter. This was left to stand in the dark at 30°C for 3 days. The leaf sections were taken out and put in a test tube containing 10 ml of 80% ethanol and the glass tube was immersed in a water bath of 80°C for 20 minutes to extract chlorophyll. After cooling, 80% ethanol was added to make up to 10 ml and absorbance at 665 nm was measured. For the untreated group, water was used in place of the candidate solution in all examples.
Senescence retardation was determined according to the degree of chlorophyll retention, that is, calculated using the following formula (in all examples). [formula] • (A) : Absorbance of treated group after 3 days • (B) : Absorbance of untreated group after 3 days • (C) : Absorbance of leaves before treatment.

The test system of data set [2] is glycine (soybean) hypocotyl section. Briefly: Assay for cytokinin activity according to glycine (soybean) hypocotyl section growth test (callus weight). It is filed as cell-based, Soybean (var.: Enrei). To be noted: Miller's medium with 2,4-D, dark, 30°C, about one month. How it is done:
Soybean seeds (var.: Enrei) were disinfected with antiformin containing 0.7% effective chlorine for 4 minutes and washed thrice with sterilized water.
Agar (15 ml, 1.6%) was put in a test tube 2.5 cm in diameter. A groove was cut by forceps on the surface of the agar and two soybean seeds treated as above were placed in this groove and kept in the dark at 30°C for 5 days.
In a glass tubular bottle 26 mm in inner diameter was put Miller's medium, to which a given concentration of the candidate compound, benzyladenine or zeatin and […] of 2,4-D were added. The central portion of hypocotyl budding out from the above seeds was cut off to give a section 1 mm thick. Four of the sections as one group were transplanted to the Miller's medium. This was placed in the dark at 30°C for about one month and then the weight of callus formed was measured. For untreated group, the Miller's medium containing 9 mg/l of 2,4-D was used.

Data set [3] deals with pig weed (Amaranthus caudatus). Briefly: Assay of cytokinin activity to promote synthesis of betacyanin by pig weed cotyledon sections. The format is cell-based. To be noted: 27°C, 20 hours, dark. How it is done: Two sheets of filter paper were put double in a plastic container (19 x 28 cm) and were wetted with 60 ml of distilled water. Seeds of pig weed were sown on the filter papers and were germinated by keeping them in the dark at 27°C for 3 days. Seedlings of uniform size were chosen and were cut at the upper part of the hypocotyl and the seed coats were removed. This cotyledon with hypocotyl of 3-4 mm in length was used for assay.
Two sheets of filter paper were put double in a glass tubular bottle 32 mm in inner diameter and 1 ml of 0.0065M potassium phosphate buffer solution (pH: 6.3) containing a given concentration of the candidate compound, benzyladenine or zeatin and 0.5 g/l of tyrosine was added therein and ten of the above cotyledon sections were arranged therein and kept at 27°C for 20 hours in the dark. These ten cotyledon sections were put in a test tube containing 3 ml of distilled water and betacyanin was extracted by repeating thrice freezing and thawing. Absorbance of the solution was measured and the amount of the dye was calculated by the difference between the absorbance at 542 nm and at 620 nm. For the untreated group, 0.0065M potassium phosphate buffer solution (pH: 6.3) containing 0.5 g/l of tyrosine was used.

Where [4] appears, read: 20°C, read-out: Solubility (g/100 g H₂O) (20°C).

Values after ≈ are worked out from the molar mass of the structure shown. Read-outs that look alike come from different tables or passages of the source.

`c1coc(CNc2ncnc3[nH]cnc23)c1` [Kinetin, reference compound] registered a solubility in “Water solubility” of 0.02 mg/mL (≈ 0.0929 mM).
For the compound `CON(C)CCCCNc1ncnc2nc[nH]c12` [MABD, N⁶-[4-(N-methoxy-N-methylamino)butyl]adenine], the “The senescence retardation (%)” value came out at 1% in data set [1] (0.01 mg/l); 11% in data set [1] (0.1 mg/l); 21% in data set [1] (1.0 mg/l); 77% in data set [1] (10 mg/l); 87% in data set [1] (100 mg/l). Further, the “The weight of soybean callus formed” value was 51 mg in data set [2] (0.01 mg/l), 152 mg in data set [2] (0.1 mg/l), 178 mg in data set [2] (1.0 mg/l) and 824 mg in data set [2] (10 mg/l). For the same compound, the “The amount of betacyanin produced (difference between absorbance at 542 nm and 620 nm)” value in data set [3] (0.1 mg/l) is 0.044; in data set [3] (1.0 mg/l), 0.069; in data set [3] (10 mg/l), 0.127; in data set [3] (100 mg/l) it was 0.207. Further, the solubility in the data set “Water solubility” (setting [4]) turned out to be 53 mg/mL (≈ 212 mM).
For the compound `CON(C)CCCNc1ncnc2nc[nH]c12` [MAPD, N⁶-[3-(N-methoxy-N-methylamino)propyl]adenine], the “The senescence retardation (%)” value turned out to be 18% in data set [1] (0.01 mg/l); 50% in data set [1] (0.1 mg/l); 94% in data set [1] (1.0 mg/l); 99% in data set [1] (10 mg/l); 91% in data set [1] (100 mg/l). Besides, the “The weight of soybean callus formed” value in data set [2] (0.01 mg/l) is 131 mg; in data set [2] (0.1 mg/l) it was 143 mg; in data set [2] (1.0 mg/l), 841 mg; in data set [2] (10 mg/l), 677 mg. Moreover, the “The amount of betacyanin produced (difference between absorbance at 542 nm and 620 nm)” value in data set [3] (0.1 mg/l) was found to be 0.065; in data set [3] (1.0 mg/l) it was 0.132; in data set [3] (10 mg/l), 0.227; in data set [3] (100 mg/l), 0.236. Moreover, the solubility in the data set “Water solubility” (setting [4]) amounted to 136 mg/mL (≈ 576 mM).
As for `C/C(=C\CNc1ncnc2[nH]cnc12)CO` [t-Zeatin, reference compound], the “The weight of soybean callus formed” value amounted to 52 mg in data set [2] (0.001 mg/l), 382 mg in data set [2] (0.01 mg/l), 815 mg in data set [2] (0.1 mg/l) and 662 mg in data set [2] (1.0 mg/l). Also, the “The amount of betacyanin produced (difference between absorbance at 542 nm and 620 nm)” value in data set [3] (0.001 mg/l) came to 0.040; in data set [3] (0.01 mg/l), 0.062; in data set [3] (0.1 mg/l), 0.198; in data set [3] (1.0 mg/l), 0.242. In the data set “Water solubility” (setting [4]), the solubility was determined as 1.4 mg/mL (≈ 6.39 mM).

The values above are taken from EP0390515A1, “Novel adenine derivatives and their use as agents for increasing crop yields” (MITSUBISHI GAS CHEMICAL COMPANY, INC., priority 1989, dated 1990).
